Experimental findings from PMC6811774, “Potent, selective, and subunit‐dependent activation of TRPC5 channels by a xanthine derivative” (British Journal of Pharmacology, 2019) are described below.

The test system of series [1] is HEK T-REx (Tet+) cells expressing TRPC5. The series is described as follows: LIVE/DEAD cell viability assay. In kind it is cell-based, human. The settings on record: AM237 up to 1 μM, 30 min. How it is done: Cell viability was assayed using the LIVE/DEAD® cell viability kit (Molecular Probes™, Eugene, Oregon, USA). HEK T‐REx expressing tetracycline‐inducible hTRPC5 were plated onto black, clear bottom poly‐D‐lysine‐coated 96‐well plates, at 25,000 cells per well, and TRPC5 protein expression was induced with 1 μg·ml^−1 tetracycline. Cells were cultured for 24 hr in DMEM‐F12 GlutaMAX (Invitrogen, Paisley, UK) containing 10% FBS, with the addition of blasticidin (10 μg·ml^−1) and zeocin (400 μg·ml^−1). For wells containing methanol‐treated positive control cells, medium was removed and 70% methanol/distilled water (100 μl) was added and cells returned to the incubator for 30 min. After incubation, the solution in each well was replaced with recording buffer (SBS with 0.01% pluronic acid and 0.05% DMSO; 100 μl). The LIVE/DEAD® (Molecular Probes™, Eugene, Oregon, US) cell viability kit was used to stain the cells. Calcein AM (5 μl) and ethidium homodimer‐1 (20 μl) were added to SBS with […] (10 ml). Compound and vehicle dilutions were carried out directly in LIVE/DEAD® solution and 100 μl of each was added to the recording buffer in each corresponding well. Cells were incubated for 30 min and immediately imaged. Imaging and analysis was carried out on the IncuCyte® ZOOM (Essen Bioscience, Welwyn Garden City, UK).

The subject of series [2] is wild-type HEK 293 cells. The series is described as follows: [Ca2+]i measurement in wild-type HEK 293 cells. The format is cell-based, human. The settings on record: 0.3–300 nM. How it is done: Intracellular concentration of Ca^2+ ([Ca^2+]i) recordings were carried out using the ratiometric Ca^2+ dye Fura‐2; 24 hr before experiments, cells were plated onto black, clear bottom poly‐D‐lysine coated 96‐well plates, and for T‐REx cells, TRPM2 or TRPC1/4/5 protein expression was induced with 1 μg·ml^−1 tetracycline at this point. All cells were used at 90% confluence. To load cells with the Fura‐2 dye, media was removed and cells were incubated with standard bath solution (SBS; composition, in mM, NaCl 130, KCl 5, glucose 8, HEPES 10, MgCl2 1.2, and CaCl2 1.5) containing 2‐μM Fura‐2 acetoxymethyl ester (Fura‐2 AM) and 0.01% pluronic acid for 1 hr at 37°C. For CHO cells stably expressing TRPV4 protein, probenecid (final concentration 2.5 mM) was present in all buffers used from the point of Fura‐2 AM application. After this incubation, cells were washed with fresh SBS and incubated at room temperature for a further 30 min. SBS was then changed to recording buffer (SBS with 0.01% pluronic acid and 0.1% DMSO to match compound buffer) immediately prior to experimentation. In the case of inhibitor studies, cells were washed twice with fresh SBS after incubation with Fura‐2 AM, followed by the addition of SBS with 0.01% pluronic acid and the relevant inhibitor or vehicle. Cells were then incubated for 30 min prior to the experiment. […]

On to `Cn1c(=O)n(CCCO)c(=O)c2c1nc(Oc1ccc(Cl)c(OC(F)(F)F)c1)n2Cc1ccc(Cl)cc1` [AM237], for which the “Cell viability (LIVE/DEAD)” value in series [1] is reported as “did not lead to reduced”. In addition, the “Effect on [Ca2+]i in wild-type HEK 293 cells” value in series [2] was “did not increase”.
